In patent US11230541B2, “Heterocyclic compound” (Takeda Pharmaceutical Company Limited, priority 2017, dated 2022):

Target: T1, NMDA receptor composed of four subunits including 2 sets of heterodimers of NR1 and NR2B (Homo sapiens, UniProt Q13224)
T1 construct: host or cells: HEK293 (tetracycline-induced expression)
Test: NR2B Ca2+ influx assay (FLIPR, Fluo-4) in HEK293 cells expressing human GRIN1 and GRIN2B
Assay type: cell-based
Conditions: HEK293, 10 μM final compound concentration, glutamic acid/glycine-induced Ca2+ influx, read-out: inhibitory rate (10 μM compound concentration)
From the text: To confirm the “antagonistic action on an NMDA receptor containing the NR2B subunit” of the compound of the present invention, human embryonic kidney cell expressing the “NMDA receptor composed of four subunits including 2 sets of heterodimers of NR1 and NR2B”, specifically HEK293 cell expressing human glutamate ionotropic receptor NMDA type subunit 1 (GRIN1) and human glutamate ionotropic receptor NMDA type subunit 2B (GRIN2B), was used and the activation suppressive effect on the receptors was measured.
As an index of the NMDA receptor activation, intracellular calcium ion (Ca^2+) influx caused by the binding of glycine and glutamic acid with NR1 and NR2B, respectively, was used. HEK293 cells were purchased from ChanTest. The cells were cultured in a DMEM/F-12 (COSMO BIO, 10-092-CM) medium added with 10% FBS′(fetal bovine serum, AusGene), 100 units/mL penicillin, 100 μg/mL streptomycin, 500 μg/mL neomycin, 100 μg/mL Zeocin, 5 μg/mL Blasticidin at 37° C., 5% CO2. The cells were detached from flask with trypsin the day before the assay, suspended in a seeding medium (DMEM (Invitrogen, 31053) added with 10% FBS, 100 units/mL penicillin, 100 μg/mL streptomycin) at 8×10^5 cells/mL, seeded by 25 μL per well in a 384-well plate (Falcon, 356663) at 20000 cells/well, and cultured overnight in an incubator. On the day of the assay, tetracycline (Wako Pure Chemical Industries, Ltd., 209-16561) was diluted with the seeding medium at 2 μg/mL, added at […] to the plate seeded with the cells, and cultured for 2 hr in an incubator. Thereafter, the medium was removed, and the cells were washed with 50 μL/well assay buffer (137 mM NaCl, 4 mM KCl, 1.8 mM CaCl2, 10 mM HEPES (pH 7.2), 10 mM Glucose, 0.1% BSA). Then, a loading buffer (assay buffer added with 2.5 uM Fluo-4AM, 2 mM Amaranth, 1 mM Tartrazine) was added at 25 μL/well, and loading was performed in the incubator for 30 min, and at room temperature for 15 min. A solution (25 μL) of the Example compound diluted with the above-mentioned assay buffer at 30 μM (final concentration 10 μM) was added, and the cells were stood for 15 min at room temperature. Using FLIPR (Molecular Devices), 25 μL of an assay buffer containing 30 μM glutamic acid, 30 μM glycine was added, and the fluorescence signal was measured every 3 seconds for 5 min. The inhibitory activity was calculated as a relative activity value (inhibitory rate) that inhibits 100% of the cumulative value of the fluorescence value of a well added with a buffer free of glutamic acid, glycine, relative to the cumulative value of the fluorescence value of each well.

T1 sequence (Q13224 27-1484, other chains not shown): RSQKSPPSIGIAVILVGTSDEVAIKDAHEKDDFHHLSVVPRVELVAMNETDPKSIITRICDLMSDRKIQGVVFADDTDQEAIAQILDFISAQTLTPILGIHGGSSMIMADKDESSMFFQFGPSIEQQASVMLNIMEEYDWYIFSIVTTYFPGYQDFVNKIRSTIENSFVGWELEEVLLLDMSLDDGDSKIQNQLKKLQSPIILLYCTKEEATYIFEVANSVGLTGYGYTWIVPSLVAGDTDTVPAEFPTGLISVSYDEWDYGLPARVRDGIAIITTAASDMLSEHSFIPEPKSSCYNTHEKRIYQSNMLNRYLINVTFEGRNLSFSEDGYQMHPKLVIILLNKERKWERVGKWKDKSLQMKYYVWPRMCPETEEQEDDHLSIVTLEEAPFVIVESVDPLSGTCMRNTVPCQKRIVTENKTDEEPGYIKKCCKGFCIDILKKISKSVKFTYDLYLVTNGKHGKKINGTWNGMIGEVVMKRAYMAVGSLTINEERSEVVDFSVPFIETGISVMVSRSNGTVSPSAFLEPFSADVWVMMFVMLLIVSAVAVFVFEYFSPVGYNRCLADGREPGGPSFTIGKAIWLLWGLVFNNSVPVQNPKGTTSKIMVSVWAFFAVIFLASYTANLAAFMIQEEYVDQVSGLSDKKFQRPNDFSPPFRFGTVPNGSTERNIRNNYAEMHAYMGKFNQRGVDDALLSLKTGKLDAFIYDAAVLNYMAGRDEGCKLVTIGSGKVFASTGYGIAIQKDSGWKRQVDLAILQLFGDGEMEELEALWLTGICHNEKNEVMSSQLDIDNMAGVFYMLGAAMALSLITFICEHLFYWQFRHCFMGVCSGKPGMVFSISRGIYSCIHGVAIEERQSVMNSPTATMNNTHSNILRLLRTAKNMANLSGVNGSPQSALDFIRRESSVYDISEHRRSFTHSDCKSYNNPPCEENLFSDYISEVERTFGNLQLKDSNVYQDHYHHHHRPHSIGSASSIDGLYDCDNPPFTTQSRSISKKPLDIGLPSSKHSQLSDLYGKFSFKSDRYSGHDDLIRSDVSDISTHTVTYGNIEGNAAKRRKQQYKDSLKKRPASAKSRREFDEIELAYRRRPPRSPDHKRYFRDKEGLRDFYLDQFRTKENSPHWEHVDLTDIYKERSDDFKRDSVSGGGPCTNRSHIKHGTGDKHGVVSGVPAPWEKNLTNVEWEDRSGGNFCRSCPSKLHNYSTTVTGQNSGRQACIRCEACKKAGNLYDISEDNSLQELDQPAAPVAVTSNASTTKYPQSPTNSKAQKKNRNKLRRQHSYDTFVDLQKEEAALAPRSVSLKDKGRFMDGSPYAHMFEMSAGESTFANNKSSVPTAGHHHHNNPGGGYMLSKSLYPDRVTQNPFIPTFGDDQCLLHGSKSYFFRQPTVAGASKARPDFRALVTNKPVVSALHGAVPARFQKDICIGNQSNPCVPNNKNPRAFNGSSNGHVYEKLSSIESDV

| SMILES | inhibition at 10 µM [%] |
| --- | --- |
| Cn1nnc2cccc(CNC(=O)c3cnc(OC(F)F)c(F)c3)c21 [Example 275, 6-(difluoromethoxy)-5-fluoro-N-[(1-methyl-1H-benzotriazol-7-yl)methyl]pyridine-3-carboxamide] | 82 |
| O=C(NCc1c(C2CC2)ccc2[nH]ncc12)c1ccc(Cl)c(F)c1 [Example 78, 4-chloro-N-((5-cyclopropyl-1H-indazol-yl)methyl)-3-fluorobenzamide] | 93 |
| Cc1csc(C(=O)NCc2c(C3CC3)ccc3[nH]ncc23)c1 [Example 63, N-((5-cyclopropyl-1H-indazol-4-yl)methyl)-methylthiophene-2-carboxamide] | 89 |
| Cc1ccc2[nH]nnc2c1CNC(=O)c1cc(F)c(F)c(Cl)c1 [Example 202, 3-chloro-4,5-difluoro-N-((5-methyl-1H-benzotriazol-4-yl)methyl)benzamide] | 83 |
| COc1ccc2ncn(C)c2c1CNC(=O)Nc1ccc(F)c(C(F)(F)F)c1 [Example 267, 1-(4-fluoro-3-(trifluoromethyl)-phenyl)-3-((6-methoxy-1-methyl-lH-benzimidazol-7-yl)methyl)urea] | 74 |
| CCOc1ccc2ncn(C)c2c1CNC(=O)c1csc(C(F)F)c1 [Example 125, 5-(difluoromethyl)-N-((6-ethoxy-1-methyl-1H-benzimidazol-7-yl)methyl)thiophene-3-carboxamide] | 92 |
| COc1ccc(NC(=O)NCc2c(OC)ccc3ncn(C)c23)cc1F [Example 225, 1-(3-fluoro-4-methoxyphenyl)-3-((6-methoxy-1-methyl-1H-benzimidazol-7-yl)methyl)urea] | 84 |
| COc1c(F)cc(C(=O)NCc2c(C3CC3)ccc3ncn(C)c23)cc1F [Example 21] | 91 |
| Cc1ccc2ncn(C)c2c1CNC(=O)c1csc(C2CC2)c1 [Example 144, 5-cyclopropyl-N-((1,6-dimethyl-1H-benzimidazol-7-yl)methyl)thiophene-3-carboxamide] | 90 |
| COc1ccc2ncn(C)c2c1CNC(=O)Nc1ccc(Cl)cc1 [Example 257, 1-(4-chlorophenyl)-3-((6-methoxy-1-methyl-1H-benzimidazol-7-yl)methyl)urea] | 90 |
| COc1ccc2nc(C)n(C)c2c1CNC(=O)c1cnc(OC)c(F)c1 [Example 235, 5-fluoro-6-methoxy-N-((6-methoxy-1,2-dimethyl-1H-benzimidazol-7-yl)methyl)nicotinamide] | 57 |
| COc1ccc(C(=O)NCc2c(C)ccc3[nH]nnc23)cc1F [Example 201, 3-fluoro-4-methoxy-N-((5-methyl-1H-benzotriazol-4-yl)methyl)benzamide] | 92 |

Other lines, results leading:

| inhibition at 10 µM [%] | SMILES |
| --- | --- |
| 82 | Cc1ccc2nn(C)cc2c1CNC(=O)c1ccc(OC(F)(F)F)cc1 [Example 1, N-((2,5-dimethyl-2H-indazol-4-yl)methyl)-4-(trifluoromethoxy)benzamide] |
| 89 | COc1ccc2ncn(C)c2c1CNC(=O)c1ccc(F)c(C(F)(F)F)c1 [Example 40, 4-fluoro-N-((6-methoxy-1-methyl-1H-benzimidazol-7-yl)methyl)-3-(trifluoro-methyl)benzamide] |
| 85 | Cc1ccc2ncn(C)c2c1CNC(=O)c1ccc(C(F)F)cc1 [Example 157, 4-(difluoromethyl)-N-((1,6-dimethyl-1H-benzimidazol-7-yl)methyl)benzamide] |
| 91 | COc1ccc2[nH]ncc2c1CNC(=O)c1ccc(OC(F)(F)F)cc1 [Example 6, N-((5-methoxy-1H-indazol-4-yl)methyl)-4-(trifluoromethoxy)benzamide] |
| 96 | O=C(NCc1cccc2[nH]ncc12)c1ccc(OC(F)(F)F)c(F)c1 [Example 179, 3-fluoro-N-(1H-indazol-4-ylmethyl)-4-(trifluoromethoxy)-benzamide] |
| 91 | Cc1ccc2ncn(C)c2c1CNC(=O)c1ccc(OC(F)(F)F)cc1 [Example 152, N-((1,6-dimethyl-1H-benzimidazol-7-yl)methyl)-4-(trifluoromethoxy)benzamide] |
